In patent US7217688B2, “Methods and compositions for derepression of IAP-inhibited caspase” (The Burnham Institute, priority 2005, dated 2007):
Square brackets hold non-standard residues; d marks the D form. Ends that are not written are not given here. * marks the point of attachment. Phe(4-Cl) = N[C@@H](Cc1ccc(Cl)cc1)C(=O)O; dPhe(4-Cl) = N[C@H](Cc1ccc(Cl)cc1)C(=O)O; dPhe(4-F) = N[C@H](Cc1ccc(F)cc1)C(=O)O; 2Nal = N[C@@H](Cc1ccc2ccccc2c1)C(=O)O; d2Nal = N[C@H](Cc1ccc2ccccc2c1)C(=O)O; Fmoc = O=C(OCC1c2ccccc2-c2ccccc21)*; 2Thi = N[C@@H](Cc1cccs1)C(=O)O; Cha = N[C@@H](CC1CCCCC1)C(=O)O

What was measured:
[1] = target: T1, XIAP-inhibited caspase-3 (Homo sapiens, UniProt P98170); experiment: caspase derepression assay (XIAP-inhibited caspase-3, Ac-DEVD-AFC hydrolysis); type: biochemical; conditions: for Activity: Table XIV, XIAP derepression assay; for LC (lowest concentration with a ratio of 2 or higher in the derepression assay): tested at 0.4, 2, 10 and 50 micrograms per milliliter; for reversing XIAP-mediated suppression of caspase 3: 50 μg/ml, full length XIAP
T1 construct: in the derepression assay using full length XIAP; made in house; host or cells: bacteria
T1 sequence (P98170 whole entry): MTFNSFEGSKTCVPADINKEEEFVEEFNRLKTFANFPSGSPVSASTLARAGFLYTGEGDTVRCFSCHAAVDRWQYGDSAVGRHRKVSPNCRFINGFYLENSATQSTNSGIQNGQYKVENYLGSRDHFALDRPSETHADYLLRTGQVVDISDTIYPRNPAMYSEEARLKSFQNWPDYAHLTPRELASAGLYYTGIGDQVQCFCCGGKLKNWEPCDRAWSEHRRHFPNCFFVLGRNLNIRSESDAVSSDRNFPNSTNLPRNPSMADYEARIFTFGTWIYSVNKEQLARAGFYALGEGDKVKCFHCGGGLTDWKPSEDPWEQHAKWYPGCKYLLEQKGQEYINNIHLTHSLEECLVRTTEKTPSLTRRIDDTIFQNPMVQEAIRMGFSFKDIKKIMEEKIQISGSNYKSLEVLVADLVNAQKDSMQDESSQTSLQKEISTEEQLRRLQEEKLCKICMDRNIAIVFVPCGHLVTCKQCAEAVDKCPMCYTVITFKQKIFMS
Procedure: Caspase activity was assayed by release of 7-amino-4-trifluoromethyl-coumarin (AFC) from Ac-DEVD-AFC synthetic peptide using a Molecular Devices Spectromax 340 (see Zhou et al., J. Biol. Chem. 272:7797–7800 (1997)). […] The ratio of Vmax for hydrolysis of Ac-DEVD-AFC in the presence and absence of the candidate mixture was calculated and used to identify those that contain an agent that derepresses an IAP-inhibited caspase.
Screening of each mixture from the DCR390, TPI 1239 or TPI 1328 library, respectively, using the above described assay was carried out as follows. Each mixture was aliquoted in a 25 microliter volume and in duplicate to a well of a 96 well microtiter plate. […] Fluorescence of liberated AFC was immediately detected from each well for 30 minutes at 30 second intervals. The Vmax for hydrolysis of AC-DEVD-AFC from each well was measured using the softmax software package. Results of the screen for the DCR390 library are shown in Table I. Sets of mixtures having the same position fixed with different respective amino acids are arranged in 6 sections identified with the position number. […] The mixture in each section are arranged in descending order according to apparent velocity in the second column.
Briefly, recombinant proteins were produced in bacteria and purified as described, for example, in Deveraux et al., Nature 388:300–304(1997). […] Generation of fluorogenic AFC (7-amino-4-trifluoromethyl coumarin) product was measured with a spectrofluorometric plate reader in kinetic mode for 30 minutes at 37° C. using excitation and emission wavelengths of 405 nm and 510 nm, respectively. […] Control reactions lacked XIAP, and all assays were conducted in the linear range of substrate hydrolysis to avoid substrate depletion artifacts.

[2] = test system: NCI panel of 60 tumor cell lines; experiment: NCI panel of 60 tumor cell lines, protein-based colorimetric assay; design: species or system human; conditions: 48 hours
Procedure: Selected polyphenylurea compounds were tested on the National Cancer Institute (NCI) panel of 60 tumor cell lines (see FIG. 28a and FIG. 29).

[3] = test system: Jurkat leukemia cells; experiment: Jurkat cell death (Annexin V / propidium iodide flow cytometry); type: cell-based; conditions: for ability to induce apoptosis in Jurkat cells: micromolar concentrations, compared to DMSO control
Procedure: The following assay was used to test the ability of individual compounds from the TPI 1396 and TPI 1391 libraries to induce apoptosis of cultured tumor cell lines. Each of the compounds listed in Table IX was individually added to Jurkat leukemia cells (6.25×10^5 cells/mL) in RPMI containing 2.5% FBS at various concentrations for 20 hours. After incubation, cells were washed and stained with FITC-conjugated Annexin V antibody and propidium iodide (Biovision; Mountain View, Calif.). Cells were incubated for 20 minutes at room temperature in the dark and fluorescence was measured by flow cytometry (FACScan, Immunocytometry system; Becton-Dickinson; San Jose, Calif.). Cells staining positive for Annexin V were deemed non-viable.

[4] = Table XI, different functionalities at R2

Compound	Activity [1]	further results
CN(CCCCC(CNC(=O)Nc1ccccc1)N(CC1CCCN1CCC12CC3CC(CC(C3)C1)C2)C(=O)Nc1ccccc1)C(=O)Nc1ccccc1 (centres unmarked) [TPI 1396-11]	–	Activity (relative caspase-3 activity, ratio of Vmax with compound to Vmax of caspase-3 and XIAP controls) ([1]; Table X, R2 = L-Proline): 2.6; activity in the derepression assay using full length XIAP ([1]; active / inactive): active; average LD50 for the 60 cell lines [2]: 10 ± 2.8 µM; median LD50 for the 60 cell lines [2]: 17 µM; % nonviable cells ([3]; 1 µM): 14%; % nonviable cells ([3]; 10 μM): 90%; % nonviable cells ([3]; 25 µM): 90%; % nonviable cells ([3]; 50 µM): 90%
COc1ccc(CCN(CCCC[C@@H](CN(C(=O)Nc2ccccc2)[C@@H](CNC(=O)Nc2ccccc2)CC2CCCCC2)N(C)C(=O)Nc2ccccc2)C(=O)Nc2ccccc2)cc1 [TPI 1396-25]	–	Activity (relative caspase-3 activity, ratio of Vmax with compound to Vmax of caspase-3 and XIAP controls) [1, 4]: 1.6
COc1ccc(CCN(C(=O)Nc2ccccc2)[C@H](Cc2ccccc2)CN(C(=O)Nc2ccccc2)[C@@H](CNC(=O)Nc2ccccc2)CC2CCCCC2)cc1 [TPI 1396-31]	–	Activity (relative caspase-3 activity, ratio of Vmax with compound to Vmax of caspase-3 and XIAP controls) [1, 4]: 1.3
CCN1CCC[C@@H]1CN(C)[C@@H](CNC(=O)Nc1ccccc1)CC1CCCCC1 [TPI 1567-5]	209 µM	–
COc1ccc(CCN2CCC[C@@H]2CN(C)[C@@H](CNC(=O)Nc2ccc(C)cc2)CC2CCCCC2)cc1 [TPI 1567-11]	75 µM	ability to induce apoptosis in Jurkat cells [3]: capable of inducing apoptosis
COc1ccc(CCN2CCC[C@@H]2CN(C)[C@@H](CNC(=O)Nc2ccc(F)cc2)CC2CCCCC2)cc1 [TPI 1567-12]	124 µM	ability to induce apoptosis in Jurkat cells [3]: capable of inducing apoptosis
COc1ccc(CCN2CCC[C@@H]2CN(C)[C@@H](CNC(=O)Nc2ccc(I)cc2)CC2CCCCC2)cc1 [TPI 1567-13]	58 µM	ability to induce apoptosis in Jurkat cells [3]: capable of inducing apoptosis
COc1ccc(CCN2CCC[C@@H]2CN(C)[C@@H](CNC(=O)Nc2cc(Br)cc(Br)c2)CC2CCCCC2)cc1 [TPI 1567-14]	81 µM	ability to induce apoptosis in Jurkat cells [3]: capable of inducing apoptosis
CN(C[C@@H]1CCCN1CCC12CC3CC(CC(C3)C1)C2)[C@H](CCCCNC(=O)Nc1ccccc1)CNC(=O)Nc1ccccc1 [TPI 1567-18]	61 µM	–
COc1ccc(CCN2C[C@@H](O)C[C@@H]2CN(C(=O)Nc2ccccc2)[C@@H](CNC(=O)Nc2ccccc2)CC2CCCCC2)cc1 [TPI 1567-23]	35 µM	–
COc1ccc(CCN2C[C@@H](O)C[C@@H]2CN(C)[C@@H](CNC(=O)Nc2ccccc2)CC2CCCCC2)cc1 [TPI 1567-24]	122 µM	–
COc1ccc(CCN2CCC[C@H]2CNC(=O)Nc2ccccc2)cc1 [TPI 1572-8]	>283 µM	–
O=C(NC[C@@H](CC1CCCCC1)N(C[C@@H]1CCCN1)C(=O)Nc1ccccc1)Nc1ccccc1 [TPI 1572-10]	>210 µM	–
CCN1CCC[C@H]1CN(C(=O)Nc1ccccc1)[C@@H](CNC(=O)Nc1ccccc1)CC1CCCCC1 [TPI 1572-11]	89 µM	–
COc1ccc(CCN2CCC[C@H]2CN(C)[C@@H](CNC(=O)Nc2ccccc2)CC2CCCCC2)cc1 [TPI 1572-14]	103 µM	–
COc1ccc(CCN2CCC[C@H]2CN(CCNC(=O)Nc2ccccc2)C(=O)Nc2ccccc2)cc1 [TPI 1572-15]	171 µM	–
COc1ccc(CCN2CCC[C@H]2CN(C(=O)Nc2ccccc2)[C@H](C)CNC(=O)Nc2ccccc2)cc1 [TPI 1572-16]	149 µM	–
CNC[C@@H](CC1CCCCC1)N(C[C@@H]1CCCN1CCc1ccc(OC)cc1)C(=O)Nc1ccccc1 [TPI 1572-17]	132 µM	–
COc1ccc(CCN2CCC[C@H]2CN(C(=O)c2ccccc2)[C@@H](CNC(=O)c2ccccc2)CC2CCCCC2)cc1 [TPI 1572-18]	164 µM	–
COc1ccc(CCN2CCC[C@H]2CN(C(C)=O)[C@@H](CNC(C)=O)CC2CCCCC2)cc1 [TPI 1572-19]	>219 µM	–
CCNC(=O)NC[C@@H](CC1CCCCC1)N(C[C@@H]1CCCN1CCc1ccc(OC)cc1)C(=O)NCC [TPI 1572-20]	235 µM	–

Compound	Activity [1]	further results
COc1ccc(CCN2CCC[C@H]2CN(C(=O)Nc2ccc(C)cc2)[C@@H](CNC(=O)Nc2ccc(C)cc2)CC2CCCCC2)cc1 [TPI 1572-21]	69 µM	–
COc1ccc(CCN2CCC[C@H]2CN(C(=O)Nc2ccc(F)cc2)[C@@H](CNC(=O)Nc2ccc(F)cc2)CC2CCCCC2)cc1 [TPI 1572-22]	79 µM	–
COc1ccc(CCN2CCC[C@H]2CN(C(=O)Nc2ccc([N+](=O)[O-])cc2)[C@@H](CNC(=O)Nc2ccc([N+](=O)[O-])cc2)CC2CCCCC2)cc1 [TPI 1572-23]	94 µM	–
COc1ccc(CCN2CCC[C@@H]2CN(C)[C@H](C)CNC(=O)Nc2ccccc2)cc1 [TPI 1577-1]	252 µM	–
COc1ccc(CCN2CCC[C@@H]2CN(C)CCNC(=O)Nc2ccccc2)cc1 [TPI 1577-2]	157 µM	–
COc1ccc(CCN2CCC[C@@H]2CN(C)[C@@H](CNC(=O)Nc2ccccc2)CC(C)C)cc1 [TPI 1577-3]	>241 µM	–
CN(C[C@H]1CCCN1CCc1ccccc1)[C@@H](CNC(=O)Nc1ccccc1)CC1CCCCC1 [TPI 1577-6]	113 µM	–
CN(C[C@H]1CCCN1CCc1ccc(F)cc1)[C@@H](CNC(=O)Nc1ccccc1)CC1CCCCC1 [TPI 1577-7]	71 µM	–
Cc1ccc(CCN2CCC[C@@H]2CN(C)[C@@H](CNC(=O)Nc2ccccc2)CC2CCCCC2)cc1 [TPI 1577-8]	88 µM	–
COc1ccc(CCN2CCC[C@@H]2CN(C)[C@@H](CNC(=O)Nc2ccc3ccccc3c2)CC2CCCCC2)cc1 [TPI 1577-9]	23 µM	ability to induce apoptosis in Jurkat cells [3]: capable of inducing apoptosis
(D-Nal)-(D-pClPhe)-(L-pC1Phe)-(Lys-εFmoc) ([d2Nal][dPhe(4-Cl)][Phe(4-Cl)]K(Fmoc)) [TPI 792-9]	–	LC (lowest concentration with a ratio of 2 or higher in the derepression assay) [1]: 10 µg/mL
(D-Nal)-(L-Nal)-(D-Lys-εFmoc)-(Lys-εFmoc) ([d2Nal][2Nal][dK](Fmoc)K(Fmoc)) [TPI 792-17]	–	LC (lowest concentration with a ratio of 2 or higher in the derepression assay) [1]: 2 µg/mL
(D-Nal)-(L-Nal)-(L-pClPhe)-(Lys-εFmoc) ([d2Nal][2Nal][Phe(4-Cl)]K(Fmoc)) [TPI 792-15]	–	LC (lowest concentration with a ratio of 2 or higher in the derepression assay) [1]: 2 µg/mL
(D-Nal)-(Lys-εFmoc)-(L-pClPhe)-(Lys-εFmoc) ([d2Nal]K(Fmoc)[Phe(4-Cl)]K(Fmoc)) [TPI 792-3]	–	LC (lowest concentration with a ratio of 2 or higher in the derepression assay) [1]: 2 µg/mL
(L-Ala)-(D-Trp)-(L-Trp)-(L-ThiAla) (A[dW]W[2Thi]) [TPI 1332-47]	–	reversing XIAP-mediated suppression of caspase 3 [1]: Active
(L-Ala)-(L-Trp)-(L-Trp)-(L-ThiAla) (AWW[2Thi]) [TPI 1332-1]	–	reversing XIAP-mediated suppression of caspase 3 [1]: Active
(L-Cha)-(D-Na1)-(L-Trp)-(L-ThiAla) ([Cha][d2Nal]W[2Thi]) [TPI 1332-41]	–	reversing XIAP-mediated suppression of caspase 3 [1]: Active
(L-ThiAla)-(D-pClPhe)-(L-pClPhe)-(Lys-εFmoc) ([2Thi][dPhe(4-Cl)][Phe(4-Cl)]K(Fmoc)) [TPI 792-27]	–	LC (lowest concentration with a ratio of 2 or higher in the derepression assay) [1]: 2 µg/mL
(L-ThiAla)-(Lys-εFmoc)-(D-Nal)-(Lys-εFmoc) ([2Thi]K(Fmoc)[d2Nal]K(Fmoc)) [TPI 792-19]	–	LC (lowest concentration with a ratio of 2 or higher in the derepression assay) [1]: 2 µg/mL
(L-ThiAla)-(Lys-εFmoc)-(L-pClPhe)-(pF-D-F) ([2Thi]K(Fmoc)[Phe(4-Cl)][dPhe(4-F)]) [TPI 792-22]	–	LC (lowest concentration with a ratio of 2 or higher in the derepression assay) [1]: 2 µg/mL
